Laboratory results taken from ChEMBL document CHEMBL3351946, “Design and synthesis of potent antitumor water-soluble phenyl N-mustard-benzenealkylamide conjugates via a bioisostere approach” (Eur J Med Chem, 2014).
Activity calls are given as the source filed them. No cut-off for these calls is given here.

How the values were obtained:
CCRF-CEM = assay: Cytotoxicity against vinblastine-resistant human CCRF-CEM cells assessed as growth inhibition after 72 hrs by Alamar Blue assay; format: functional, cell-based
[1] = Cytotoxicity against human H460 cells assessed as growth inhibition after 72 hrs by Alamar Blue assay; format: functional, cell-based; settings: NCI-H460, 72 h
[2] = Cytotoxicity against human H1299 cells assessed as growth inhibition after 72 hrs by Alamar Blue assay; format: functional, cell-based; settings: NCI-H1299, 72 h
[3] = Cytotoxicity against human H3347 cells assessed as growth inhibition after 72 hrs by Alamar Blue assay; format: functional, cell-based; settings: H3347, 72 h
[4] = Antitumor activity against human HCT116 cells xenografted in nude mouse assessed as tumor growth inhibition at 30 mg/kg,iv qd administered for 6 days measured on day 15 relative to control; format: functional, HCT-116
[5] = Antitumor activity against human H3347 cells xenografted in nude mouse assessed as tumor growth inhibition at 30 mg/kg,iv qd administered for 6 days measured on day 31 relative to control; format: functional; settings: read-out: TGI
[6] = Antitumor activity against human PC3 cells xenografted in nude mouse assessed as tumor growth inhibition at 30 mg/kg,iv qd administered for 6 days measured on day 21 relative to control; format: functional, PC-3
[7] = Antitumor activity against human H460 cells xenografted in nude mouse assessed as tumor growth inhibition at 30 mg/kg,iv qd administered for 6 days measured on day 19 to 26 relative to control; format: functional, NCI-H460
[8] = Antitumor activity against human PC3 cells xenografted in nude mouse assessed as tumor growth inhibition at 50 mg/kg,iv administered every 2 days for 5 doses measured on day 38 relative to control; format: functional; settings: PC-3, iv, read-out: TGI
[9] = Antitumor activity against human H460 cells xenografted in nude mouse assessed as tumor growth inhibition at 30 mg/kg,iv qd administered for 6 days measured on day 37 relative to control; format: functional; settings: NCI-H460, iv, read-out: TGI
Mus musculus [10] = assay: Toxicity in nude mouse xenografted with human HCT116 cells assessed as body weight loss at 30 mg/kg,iv qd administered for 6 days measured on day 13 relative to control; format: organism-based, HCT-116; parameters: dose 30 mg/kg; settings: in vivo, 144 h
Mus musculus [11] = assay: Toxicity in nude mouse xenografted with human PC3 cells assessed as body weight loss at 30 mg/kg,iv qd administered for 6 days measured on day 13 relative to control; format: organism-based, PC-3; parameters: dose 30 mg/kg; settings: in vivo, 144 h
Mus musculus [12] = assay: Toxicity in nude mouse xenografted with human PC3 cells assessed as change in body weight at 40 mg/kg,iv administered every 2 days for 5 doses measured on day 38 relative to control; format: organism-based, PC-3; parameters: dose 40 mg/kg; settings: in vivo, 48 h
[13] = Induction of pEGFP-N1 DNA (unknown origin) interstand crosslinking after 2 hrs by alkaline agarose gel shift assay
HCT-116 = assay: Induction of DNA interstand crosslinking in human HCT116 cells under aerobic condition assessed as decrease in tail moment at 0.5 to 1 uM preincubated for 1 hr followed by 20 Gy X-ray irradiation by comet assay; format: cell-based
[14] = Cell cycle arrest in human HCT116 cells assessed as accumulation at G1 phase at 1 uM after 24 hrs by FACS flow cytometric analysis (reference value: 48.75 +/- 3.69%); format: functional, cell-based; settings: HCT-116
[15] = Cell cycle arrest in human HCT116 cells assessed as accumulation at S phase at 1 uM after 24 hrs by FACS flow cytometric analysis (reference value: 18.71 +/- 2.25%); format: functional, cell-based; settings: HCT-116
[16] = Cell cycle arrest in human HCT116 cells assessed as accumulation at G1 phase at 2 uM after 24 hrs by FACS flow cytometric analysis (reference value: 48.75 +/- 3.69%); format: functional, cell-based; settings: HCT-116
[17] = Cell cycle arrest in human HCT116 cells assessed as accumulation at G2/M phase at 4 uM after 24 hrs by FACS flow cytometric analysis (reference value: 31.55 +/- 4.63%); format: functional, cell-based; settings: HCT-116
[18] = Cell cycle arrest in human HCT116 cells assessed as accumulation at G1 phase at 2 uM after 48 hrs by FACS flow cytometric analysis (reference value: 62.16 +/- 5.94%); format: functional, cell-based; settings: HCT-116
[19] = Cell cycle arrest in human HCT116 cells assessed as accumulation at S phase at 2 uM after 48 hrs by FACS flow cytometric analysis (reference value: 12.11 +/- 4.28%); format: functional, cell-based; settings: HCT-116
[20] = Cell cycle arrest in human HCT116 cells assessed as accumulation at S phase at 4 uM after 48 hrs by FACS flow cytometric analysis (reference value: 12.11 +/- 4.28%); format: functional, cell-based; settings: HCT-116
[21] = Cell cycle arrest in human HCT116 cells assessed as accumulation at sub-G1 phase at 1 uM after 72 hrs by FACS flow cytometric analysis (reference value: 3.29 +/- 1.39%); format: functional, cell-based; settings: HCT-116
[22] = Cell cycle arrest in human HCT116 cells assessed as accumulation at G2/M phase at 1 uM after 72 hrs by FACS flow cytometric analysis (reference value: 12.82 +/- 2.19%); format: functional, cell-based; settings: HCT-116
[23] = Cell cycle arrest in human HCT116 cells assessed as accumulation at G1 phase at 2 uM after 72 hrs by FACS flow cytometric analysis (reference value: 76.29 +/- 2.65%); format: functional, cell-based; settings: HCT-116
[24] = Cell cycle arrest in human HCT116 cells assessed as accumulation at sub-G1 phase at 4 uM after 72 hrs by FACS flow cytometric analysis (reference value: 3.29 +/- 1.39%); format: functional, cell-based; settings: HCT-116
[25] = Cell cycle arrest in human HCT116 cells assessed as accumulation at G1 phase at 4 uM after 72 hrs by FACS flow cytometric analysis (reference value: 76.29 +/- 2.65%); format: functional, cell-based; settings: HCT-116
[26] = Cell cycle arrest in human HCT116 cells assessed as accumulation at G2/M phase at 4 uM after 72 hrs by FACS flow cytometric analysis (reference value: 12.82 +/- 2.19%); format: functional, cell-based; settings: HCT-116
[27] = Cell cycle arrest in human HCT116 cells assessed as accumulation at G2/M phase after 24 hrs by FACS flow cytometric analysis; format: functional, cell-based; settings: HCT-116
Mus musculus [28] = assay: Induction of apoptosis in HCT116 cells xenografted in nude mouse at 30 mg/kg, iv qd administered for 6 days measured 24 hrs post last dose by hematoxylin and eosin staining; format: functional, organism-based; parameters: dose 30 mg/kg; settings: HCT-116
[29] = Oral bioavailability in Sprague-Dawley rat at 50 mg/kg; format: ADME, organism-based; settings: in vivo
Mus musculus [30] = assay: Toxicity in iv dosed CD-1 (ICR) mouse assessed as piloerection measured for 14 days; format: organism-based; settings: in vivo, 336 h
Mus musculus [31] = assay: Toxicity in iv dosed CD-1 (ICR) mouse assessed as soft feces measured for 14 days; format: organism-based; settings: in vivo, 336 h
Mus musculus [32] = assay: Toxicity in iv dosed CD-1 (ICR) mouse assessed as dehydration measured for 14 days; format: organism-based; settings: in vivo, 336 h
Mus musculus [33] = assay: Toxicity in CD-1 (ICR) mouse assessed as body weight loss at 75 to 105 mg/kg, iv measured on day 8; format: organism-based; parameters: dose 75-105 mg/kg, route intravenous; settings: in vivo
Mus musculus [34] = assay: Toxicity in CD-1 (ICR) mouse assessed as gross lesions in thymus at 150 mg/kg, iv measured for 14 days; format: organism-based; parameters: dose 150 mg/kg, route intravenous; settings: in vivo, 336 h
[35] = target: Voltage-gated inwardly rectifying potassium channel KCNH2 (Homo sapiens, UniProt Q12809); assay: Binding affinity to human ERG after 4 hrs by fluorescence polarization assay
Voltage-gated inwardly rectifying potassium channel KCNH2, sequence (Q12809 whole entry): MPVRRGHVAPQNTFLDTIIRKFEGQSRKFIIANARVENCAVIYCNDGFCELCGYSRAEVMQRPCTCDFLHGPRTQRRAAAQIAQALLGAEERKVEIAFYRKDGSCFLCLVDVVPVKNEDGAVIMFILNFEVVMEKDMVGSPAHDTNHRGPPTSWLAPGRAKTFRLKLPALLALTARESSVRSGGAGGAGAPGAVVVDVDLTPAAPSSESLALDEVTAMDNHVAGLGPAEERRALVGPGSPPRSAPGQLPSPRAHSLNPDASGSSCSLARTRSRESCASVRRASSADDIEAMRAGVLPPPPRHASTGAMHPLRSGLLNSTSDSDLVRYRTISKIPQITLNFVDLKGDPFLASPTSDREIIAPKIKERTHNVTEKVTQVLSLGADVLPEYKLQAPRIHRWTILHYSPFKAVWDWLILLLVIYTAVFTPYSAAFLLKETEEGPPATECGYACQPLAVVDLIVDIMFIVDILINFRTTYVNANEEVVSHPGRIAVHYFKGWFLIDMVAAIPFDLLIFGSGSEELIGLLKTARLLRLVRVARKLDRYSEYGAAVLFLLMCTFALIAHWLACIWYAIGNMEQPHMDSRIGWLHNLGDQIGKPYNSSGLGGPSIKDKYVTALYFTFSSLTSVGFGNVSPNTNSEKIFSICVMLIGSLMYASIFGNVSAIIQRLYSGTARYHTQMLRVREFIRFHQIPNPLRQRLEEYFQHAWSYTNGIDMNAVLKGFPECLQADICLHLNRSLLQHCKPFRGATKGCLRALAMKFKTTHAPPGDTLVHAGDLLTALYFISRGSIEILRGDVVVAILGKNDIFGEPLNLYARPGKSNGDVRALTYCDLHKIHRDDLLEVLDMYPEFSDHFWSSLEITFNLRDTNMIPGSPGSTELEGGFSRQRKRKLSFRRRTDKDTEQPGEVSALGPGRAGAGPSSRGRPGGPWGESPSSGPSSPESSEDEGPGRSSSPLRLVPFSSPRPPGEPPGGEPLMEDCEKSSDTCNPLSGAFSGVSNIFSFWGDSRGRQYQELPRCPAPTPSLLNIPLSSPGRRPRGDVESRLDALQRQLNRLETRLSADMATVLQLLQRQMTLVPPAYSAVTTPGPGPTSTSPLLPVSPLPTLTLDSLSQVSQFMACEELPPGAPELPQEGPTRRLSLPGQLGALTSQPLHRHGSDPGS

CCN(CC)CC(=O)Nc1ccc(NC(=O)Nc2ccc(N(CCCl)CCCl)cc2)cc1
IC50 (CCRF-CEM): 2160 nM | IC50 [1]: 930 nM | IC50 [2]: 3430 nM | IC50 [3]: 870 nM | %max [4]: 91% | inhibition in vivo at 30 mg/kg [5]: 90% | %max [6]: 56% | %max [7]: 61% | inhibition in vivo at 50 mg/kg [8]: 62% | inhibition in vivo at 30 mg/kg [9]: 53% | body weight change relative to control (Mus musculus [10]): -5% | %max (Mus musculus [11]): -15% | Activity (Mus musculus [12]): -12% | Activity [13]: Dose-dependent effect | Activity (HCT-116): Active | Activity [14]: 17.3% | Activity [15]: 18.7% | Activity [16]: 11.8% | Activity [17]: 56.3% | Activity [18]: 49.5% | Activity [19]: 11.9% | Activity [20]: 16.6% | Activity [21]: 12.4% | Activity [22]: 20.5% | Activity [23]: 38.7% | Activity [24]: 17.9% | Activity [25]: 18.1% | Activity [26]: 41.4% | Activity [27]: Dose-dependent effect | Activity (Mus musculus [28]): Active | bioavailability [29]: 5.32% | Activity (Mus musculus [30]): Dose-dependent effect | Activity (Mus musculus [31]): Dose-dependent effect | Activity (Mus musculus [32]): Dose-dependent effect | Activity (Mus musculus [33]): Toxic | Activity (Mus musculus [34]): Toxic | Activity [35]: 4.48 µM
